The source of these data is US10975099B2, “Thiophene compounds for long-acting injectable compositions and related methods” (Alkermes Pharma Ireland Limited, priority 2018, dated 2021).

The structures appear in SMILES notation. Values joined by “and” are separate entries in the source; they are usually repeats but may differ in a detail not shown here. Identical values can stand only once. Where only a bound is given, the exact number is not on record here.

The nature of data set [1]: Whole blood stability assay. The format is in vitro ADME. Particulars: pooled fresh human whole blood, 37 degrees C., prodrug 50 nM; read-out: t1/2 at 37 degrees C. in human whole blood. The method, then: Naltrexone prodrug stability was assessed using freshly collected whole blood (within 24-hr collection) from pooled human (n=3) donors. The incubation mixtures were prepared by spiking the prodrugs into pre-warmed (37 degrees C.) fresh whole blood to a final concentration of 50 nM. After gentle mixing, aliquots of incubation mixtures were immediately transferred into four different 96-deep well plates. One plate was used for each time point. The plates were incubated at 37 degrees C. at a shaking speed of 100 rpm. At time points 15, 30, 60 and 120 minutes, the reaction was quenched by addition of a mixture of water and acetonitrile containing the internal standard (naltrexone-D3). Time point 0 minutes was prepared separately by spiking the prodrugs into a quenched whole blood to obtain a final concentration of 50 nM. All samples were vortexed at a low speed for 15 min and centrifuged at 3900 rpm for 15 min. Supernatants were transferred into 96-well plates for LC-MS/MS analysis to monitor the depletion of the prodrugs and the formation of naltrexone.
The amount of remaining prodrug and released naltrexone for each sample was quantitated against the calibration curves prepared with the whole blood. The human whole blood was purchased from BioreclamationIVT (Westbury, N.Y., USA). Naltrexone-D3 was purchased from Cerilliant® (Round Rock, Tex., USA). […] Where multiple runs have been completed, average values are reported.

Data set [2] in a line: Pharmacokinetic evaluation of the release of naltrexone from Compound 4 in rats following a single intramuscular injection. The format is in vivo, Sprague-Dawley rats. As to conditions: for plasma concentrations of parent Compound 4 and the resultant intermediate, in words: over 84 days after single IM dose of Compound 4, limit of quantitation 0.5 ng/mL. The method, then: Five male Sprague-Dawley rats were allowed to acclimate to the test facility for at least 3 days prior to study start. For dose administration of Compound 4, the rats were lightly anesthetized with isofluorane, the hind leg shaved and dosed intramuscularly with the formulation using a 20 G needle. […] Serial whole blood samples were collected via sublingual route (˜150 μL) at 1, 7, and 24 hours post dose, and at 2, 4, 7, 10, 14, 21, 24, 28, 35, 42, 49, 56, 63, 70, 77, and 84 days post dose.
Blood samples were placed into K2EDTA blood collection tubes. After collection, blood samples were maintained chilled (on wet ice) and centrifuged (11,500 rpm for 2 minutes at 5 degrees C.) within 30 minutes to obtain plasma. Plasma was transferred into a single vial, 1.5 mL screw cap micro-centrifuge tube with inserts and stored at −80 degrees C. until analysis.
The formulation dosed was a crystalline suspension of Compound 4 (48.3 milligrams of Compound 4 dosed per animal), wherein the crystalline test article was characterized with a particle size distribution of Dv10=4.0 μm, Dv50=6.4 μm, and Dv90=9.6 μm (as measured via laser diffraction). The formulation was prepared the day before dosing. Details of the formulation dosed are described in Table D below.
Results of the above intramuscular rat study of Compound 4 are shown in Tables E and F. In particular, Table E reports the average blood plasma levels of naltrexone in rat (n=5) over 84 days following intramuscular administration.

Regarding `O=C(Cc1sc(CC(=O)Oc2ccc3c4c2O[C@H]2C(=O)CC[C@@]5(O)[C@@H](C3)N(CC3CC3)CC[C@]425)c2ccccc12)Oc1ccc2c3c1O[C@H]1C(=O)CC[C@@]4(O)[C@@H](C2)N(CC2CC2)CC[C@]314` [Compound 3, bis((4R,4aS,7aR,12bS)-3-(cyclopropylmethyl)-4a-hydroxy-7-oxo-2,3,4,4a,5,6,7,7a-octahydro-1H-4,12-methanobenzofuro[3,2-e]isoquinolin-9-yl) 2,2′-(benzo[c]thiophene-1,3-diyl)diacetate], the half-life at 50 nM in data set [1] came out at 41.2 min.

On to `O=C(Oc1ccc2c3c1O[C@H]1C(=O)CC[C@@]4(O)[C@@H](C2)N(CC2CC2)CC[C@]314)c1ccc(C(=O)Oc2ccc3c4c2O[C@H]2C(=O)CC[C@@]5(O)[C@@H](C3)N(CC3CC3)CC[C@]425)cc1` [Reference Compound A, NTX-3-terephthaloyl-NTX, reference compound], for which the half-life at 50 nM in data set [1] stood at 54.7 min.

For the molecule `O=C(Cc1ccc(CC(=O)Oc2ccc3c4c2O[C@H]2C(=O)CC[C@@]5(O)[C@@H](C3)N(CC3CC3)CC[C@]425)s1)Oc1ccc2c3c1O[C@H]1C(=O)CC[C@@]4(O)[C@@H](C2)N(CC2CC2)CC[C@]314` [Compound 4, bis((4R,4aS,7aR,12bS)-3-(cyclopropylmethyl)-4a-hydroxy-7-oxo-2,3,4,4a,5,6,7,7a-octahydro-1H-4,12-methanobenzofuro[3,2-e]isoquinolin-9-yl) 2,2′-(thiophene-2,5-diyl)diacetate], the half-life at 50 nM in data set [1] was determined as 4.19 min. Also, in data set [2] (male, Sprague-Dawley, rat, plasma, intramuscular, 48.3 mg per animal, rat plasma, individual animals Rat 1-5, day 1 after single IM dose of Compound 4, read-out: Compound 4 conc.), the concentration at 1 day is less than 0.5 ng/mL. Also, the concentration at 49 day in data set [2] (male, Sprague-Dawley, rat, plasma, intramuscular, 48.3 mg per animal, rat plasma, individual animals Rat 1-5, day 49 after single IM dose of Compound 4, read-out: Compound 4 conc.) was less than 0.5 ng/mL. Besides, the concentration at 56 day in data set [2] (male, Sprague-Dawley, rat, plasma, intramuscular, 48.3 mg per animal, rat plasma, individual animals Rat 1-5, day 56 after single IM dose of Compound 4, read-out: Compound 4 conc.) is less than 0.5 ng/mL. For the same molecule, the concentration at 63 day in data set [2] (male, Sprague-Dawley, rat, plasma, intramuscular, 48.3 mg per animal, rat plasma, individual animals Rat 1-5, day 63 after single IM dose of Compound 4, read-out: Compound 4 conc.) was less than 0.5 ng/mL. Moreover, the concentration at 70 day in data set [2] (male, Sprague-Dawley, rat, plasma, intramuscular, 48.3 mg per animal, rat plasma, individual animals Rat 1-5, day 70 after single IM dose of Compound 4, read-out: Compound 4 conc.) is less than 0.5 ng/mL. The concentration at 77 day in data set [2] (male, Sprague-Dawley, rat, plasma, intramuscular, 48.3 mg per animal, rat plasma, individual animals Rat 1-5, day 77 after single IM dose of Compound 4, read-out: Compound 4 conc.) is less than 0.5 ng/mL. The concentration at 84 day in data set [2] (male, Sprague-Dawley, rat, plasma, intramuscular, 48.3 mg per animal, rat plasma, individual animals Rat 1-5, day 84 after single IM dose of Compound 4, read-out: Compound 4 conc.) was less than 0.5 ng/mL. For the same molecule, the concentration at 2 day in data set [2] (male, Sprague-Dawley, rat, plasma, intramuscular, 48.3 mg/animal, rat plasma, individual animals Rat 1-5, day 2 after single IM dose of Compound 4, read-out: Compound 4 conc.) is less than 0.5 ng/mL. Further, in data set [2] (male, Sprague-Dawley, rat, plasma, intramuscular, 48.3 mg/animal, rat plasma, individual animals Rat 1-5, day 4 after single IM dose of Compound 4, read-out: Compound 4 conc.), the concentration at 4 day was less than 0.5 ng/mL. Moreover, the concentration at 7 day in data set [2] (male, Sprague-Dawley, rat, plasma, intramuscular, 48.3 mg/animal, rat plasma, individual animals Rat 1-5, day 7 after single IM dose of Compound 4, read-out: Compound 4 conc.) is less than 0.5 ng/mL. Further, the concentration at 10 day in data set [2] (male, Sprague-Dawley, rat, plasma, intramuscular, 48.3 mg/animal, rat plasma, individual animals Rat 1-5, day 10 after single IM dose of Compound 4, read-out: Compound 4 conc.) is less than 0.5 ng/mL. In addition, in data set [2] (male, Sprague-Dawley, rat, plasma, intramuscular, 48.3 mg/animal, rat plasma, individual animals Rat 1-5, day 14 after single IM dose of Compound 4, read-out: Compound 4 conc.), the concentration at 14 day is less than 0.5 ng/mL. The concentration at 21 day in data set [2] (male, Sprague-Dawley, rat, plasma, intramuscular, 48.3 mg/animal, rat plasma, individual animals Rat 1-5, day 21 after single IM dose of Compound 4, read-out: Compound 4 conc.) was less than 0.5 ng/mL. For the same molecule, the concentration at 24 day in data set [2] (male, Sprague-Dawley, rat, plasma, intramuscular, 48.3 mg/animal, rat plasma, individual animals Rat 1-5, day 24 after single IM dose of Compound 4, read-out: Compound 4 conc.) is less than 0.5 ng/mL. Moreover, the concentration at 28 day in data set [2] (male, Sprague-Dawley, rat, plasma, intramuscular, 48.3 mg/animal, rat plasma, individual animals Rat 1-5, day 28 after single IM dose of Compound 4, read-out: Compound 4 conc.) is less than 0.5 ng/mL. Moreover, the concentration at 35 day in data set [2] (male, Sprague-Dawley, rat, plasma, intramuscular, 48.3 mg/animal, rat plasma, individual animals Rat 1-5, day 35 after single IM dose of Compound 4, read-out: Compound 4 conc.) is less than 0.5 ng/mL. In addition, the concentration at 42 day in data set [2] (male, Sprague-Dawley, rat, plasma, intramuscular, 48.3 mg/animal, rat plasma, individual animals Rat 1-5, day 42 after single IM dose of Compound 4, read-out: Compound 4 conc.) was less than 0.5 ng/mL. In addition, the Naltrexone conc. entry in data set [2] (rat plasma, average, day 84 after single IM dose of Compound 4 crystalline suspension (48.3 mg/animal)) is recorded as “BLQ* (BLQ (Below Limit of Quantitation) means <0.5 ng/mL)”. In addition, the “Compound 4 conc.” value in data set [2] (rat plasma, individual animals Rat 1-5, day 0.04 (1 hr) after single IM dose of Compound 4) is <0.5 ng/mL (4×) and 2.11 ng/mL; in data set [2] (rat plasma, individual animals Rat 1-5, day 0.3 (7 hr) after single IM dose of Compound 4), 1.22 ng/mL and <0.5 ng/mL (3×) and 1.05 ng/mL; in data set [2] (rat plasma, individual animals Rat 1-5, day 1 after single IM dose of Compound 4), <0.5 ng/mL (3×) and 0.501 ng/mL; in data set [2] (rat plasma, individual animals Rat 1-5, day 2 after single IM dose of Compound 4), less than 0.5 ng/mL; in data set [2] (rat plasma, individual animals Rat 1-5, day 4 after single IM dose of Compound 4), less than 0.5 ng/mL; in data set [2] (rat plasma, individual animals Rat 1-5, day 7 after single IM dose of Compound 4) it was less than 0.5 ng/mL. For the same molecule, the “Compound 4 conc.” value in data set [2] (rat plasma, individual animals Rat 1-5, day 10 after single IM dose of Compound 4) is recorded as less than 0.5 ng/mL; in data set [2] (rat plasma, individual animals Rat 1-5, day 14 after single IM dose of Compound 4), less than 0.5 ng/mL; in data set [2] (rat plasma, individual animals Rat 1-5, day 21 after single IM dose of Compound 4), less than 0.5 ng/mL; in data set [2] (rat plasma, individual animals Rat 1-5, day 24 after single IM dose of Compound 4), less than 0.5 ng/mL; in data set [2] (rat plasma, individual animals Rat 1-5, day 28 after single IM dose of Compound 4), less than 0.5 ng/mL; in data set [2] (rat plasma, individual animals Rat 1-5, day 35 after single IM dose of Compound 4), less than 0.5 ng/mL. Further, the “Compound 4 conc.” value in data set [2] (rat plasma, individual animals Rat 1-5, day 42 after single IM dose of Compound 4) is less than 0.5 ng/mL; in data set [2] (rat plasma, individual animals Rat 1-5, day 49 after single IM dose of Compound 4) it was less than 0.5 ng/mL; in data set [2] (rat plasma, individual animals Rat 1-5, day 56 after single IM dose of Compound 4), less than 0.5 ng/mL; in data set [2] (rat plasma, individual animals Rat 1-5, day 63 after single IM dose of Compound 4) it was less than 0.5 ng/mL; in data set [2] (rat plasma, individual animals Rat 1-5, day 70 after single IM dose of Compound 4), less than 0.5 ng/mL; in data set [2] (rat plasma, individual animals Rat 1-5, day 77 after single IM dose of Compound 4), less than 0.5 ng/mL. Further, the “Compound 4 conc.” value in data set [2] (rat plasma, individual animals Rat 1-5, day 84 after single IM dose of Compound 4) is given as less than 0.5 ng/mL. Besides, in data set [2] (rat), the “plasma concentrations of parent Compound 4 and the resultant intermediate, in words” value was “generally low to not measurable”.

As for `O=C(Cc1cscc1CC(=O)Oc1ccc2c3c1O[C@H]1C(=O)CC[C@@]4(O)[C@@H](C2)N(CC2CC2)CC[C@]314)Oc1ccc2c3c1O[C@H]1C(=O)CC[C@@]4(O)[C@@H](C2)N(CC2CC2)CC[C@]314` [Compound 2, bis((4R,4aS,7aR,12bS)-3-(cyclopropylmethyl)-4a-hydroxy-7-oxo-2,3,4,4a,5,6,7,7a-octahydro-1H-4,12-methanobenzofuro[3,2-e]isoquinolin-9-yl) 2,2′-(thiophene-3,4-diyl)diacetate], the half-life at 50 nM in data set [1] is less than 5 min.

On to `O=C(O)Cc1ccc(CC(=O)Oc2ccc3c4c2O[C@H]2C(=O)CC[C@@]5(O)[C@@H](C3)N(CC3CC3)CC[C@]425)s1` [Compound 4i, 2-(5-(2-(((4R,4aS,7aR,12bS)-3-(cyclopropylmethyl)-4a-hydroxy-7-oxo-2,3,4,4a,5,6,7,7a-octahydro-1H-4,12-methanobenzofuro[3,2-e]isoquinolin-9-yl)oxy)-2-oxoethyl)thiophen-2-yl)acetic acid], for which, in data set [2] (rat), the “plasma concentrations of parent Compound 4 and the resultant intermediate, in words” value is recorded as “generally low to not measurable”.

Regarding `O=C(CCc1ccc(CCC(=O)Oc2ccc3c4c2O[C@H]2C(=O)CC[C@@]5(O)[C@@H](C3)N(CC3CC3)CC[C@]425)s1)Oc1ccc2c3c1O[C@H]1C(=O)CC[C@@]4(O)[C@@H](C2)N(CC2CC2)CC[C@]314` [Compound 1, bis((4R,4aS,7aR,12bS)-3-(cyclopropylmethyl)-4a-hydroxy-7-oxo-2,3,4,4a,5,6,7,7a-octahydro-1H-4,12-methanobenzofuro[3,2-e]isoquinolin-9-yl) 3,3′-(thiophene-2,5-diyl)dipropionate], in data set [1], the half-life at 50 nM stood at 7.2 min.
